Measured values as given in US7662789B2, “Peptide substance restoring myocardium function” (“Access Bioscience” CJSC, priority 2004, dated 2010).
Marks after values point to notes of the source that are not given here. Where a SMILES comes first, the peptide text is derived from it.

Key:
isolated cardiomyocytes = test: Cardiomyocyte bioenergetics, polarographic oxygen consumption; format: cell-based, rats
Procedure: Cardiomyocytes were extracted from the cardiac muscle of pubertal rats by Vahouny. Oxygen consumption by isolated cardiomyocytes was registered polarographically at the temperature of 30° C. Part of cardiomyocytes suspension was oxygenated by saturation with carbogen for 1-3 hours at room temperature. The other part of suspension was not oxygenated (conditions of moderate hypoxia). […] The tetrapeptide was introduced into the medium in the concentration of 10 ng/ml.

[1] = tested on: chlorine-calcium arrhythmia in rats; test: Chlorine-calcium (CaCl2) arrhythmia in rats; format: in vivo; conditions: for Death after the first arrhythmogen administration, abs.: 10 animals
Procedure: The experiment was conducted on 60 white mongrel rats with body weight of 180-200 g. The animals were randomly subdivided into 6 groups, each consisting of 10 animals. The rats were narcotized with urethane and received 220 mg/kg of 10% CaCl2 solution. Ala-Glu-Asp-Arg tetrapeptide was administered to the animals intraperitoneally, once, in the doses of 0.05-1.0 μg/kg in sterile 0.9% NaCl solution.

C[C@H](N)C(=O)N[C@@H](CCC(=O)O)C(=O)N[C@@H](CC(=O)O)C(=O)N[C@@H](CCCNC(=N)N)C(=O)O [Tetrapeptide, L-alanyl-L-glutamyl-L-aspartyl-L-arginine] (H-AEDR-OH)
Coefficient of breath stimulation (breath rate with succinate to initial breath rate) (isolated cardiomyocytes; 10 ng/ml, hypoxia, succinate 1×10^−4 M, without tetrapeptide 7.35±0.26): 1.97±0.26
NAD.H2 oxidation by cardiomyocytes (isolated cardiomyocytes; tetrapeptide in the medium): increases NAD.H2 oxidation by cardiomyocytes
Death after the first arrhythmogen administration, % ([1]; 0.05 μg/kg i.p. once): 50%
Frequency of sinus rhythm restoration after the first CaCl2 administration ([1]; 0.05 μg/kg i.p. once): 27.0%
Frequency of ventricle fibrillation development in the course of the experiment ([1]; 0.05 μg/kg i.p. once): 60.3%
Maximum tolerable arrhythmogen dose ([1]; 0.05 μg/kg i.p. once): 220 mg/kg
Death after the first arrhythmogen administration, abs. ([1]; 0.05 μg/kg i.p. once): 5
Death after the first arrhythmogen administration, % ([1]; 0.1 μg/kg i.p. once): 50%
Frequency of sinus rhythm restoration after the first CaCl2 administration ([1]; 0.1 μg/kg i.p. once): 29.6%
Frequency of ventricle fibrillation development in the course of the experiment ([1]; 0.1 μg/kg i.p. once): 45.8%
Maximum tolerable arrhythmogen dose ([1]; 0.1 μg/kg i.p. once): 220 mg/kg
Death after the first arrhythmogen administration, abs. ([1]; 0.1 μg/kg i.p. once): 5
Increase of frequency of heart contractions (FHC) ([1]; 0.2 μg/kg and 0.5 μg/kg, bradicardia rats): 12.3-48.6%
Death after the first arrhythmogen administration, % ([1]; 0.2 μg/kg i.p. once): 30%
Frequency of sinus rhythm restoration after the first CaCl2 administration ([1]; 0.2 μg/kg i.p. once): 49.0* %
Frequency of ventricle fibrillation development in the course of the experiment ([1]; 0.2 μg/kg i.p. once): 35.2* %
Maximum tolerable arrhythmogen dose ([1]; 0.2 μg/kg i.p. once): 440 mg/kg
Death after the first arrhythmogen administration, abs. ([1]; 0.2 μg/kg i.p. once): 3
Death after the first arrhythmogen administration, % ([1]; 0.5 μg/kg i.p. once): 40%
Frequency of sinus rhythm restoration after the first CaCl2 administration ([1]; 0.5 μg/kg i.p. once): 39.5* %
Frequency of ventricle fibrillation development in the course of the experiment ([1]; 0.5 μg/kg i.p. once): 39.1* %
Maximum tolerable arrhythmogen dose ([1]; 0.5 μg/kg i.p. once): 440 mg/kg
Death after the first arrhythmogen administration, abs. ([1]; 0.5 μg/kg i.p. once): 4
Death after the first arrhythmogen administration, % ([1]; 1.0 μg/kg i.p. once): 60%
Frequency of sinus rhythm restoration after the first CaCl2 administration ([1]; 1.0 μg/kg i.p. once): 16.3%
Frequency of ventricle fibrillation development in the course of the experiment ([1]; 1.0 μg/kg i.p. once): 43.6%
Maximum tolerable arrhythmogen dose ([1]; 1.0 μg/kg i.p. once): 220 mg/kg
Death after the first arrhythmogen administration, abs. ([1]; 1.0 μg/kg i.p. once): 6
Most efficient dose ([1]; doses 0.05-1.0 μg/kg i.p. tested): 0.0002 mg/kg
